Several values for one entry are separate records, joined by “and”; a condition that tells them apart may be missing. Equal entries are not always repeated. HELM strings list units from the 5' end as sugar, base in round brackets, then linkage (d deoxyribose, r ribose, m 2'-O-methyl, p phosphodiester). Methylation of C is not given here. [moe] = 2'-O-(2-methoxyethyl) (MOE); [cEt] = constrained ethyl (cEt); [sp] = phosphorothioate linkage
Target: HBV
Details: ASO

Row | Substance | target mRNA inhibition (HepG2, 0.07 µM) | also measured
1 | RNA1{[moe](A)[sp].[moe](G)[sp].[moe](A)[sp].[moe](G)[sp].d(G)[sp].d(T)[sp].d(G)[sp].d(A)[sp].d(A)[sp].d(G)[sp].d(C)[sp].d(G)[sp].d(A)[sp].[moe](A)[sp].[moe](G)[sp].[moe](T)}$$$$V2.0 | 52% and 54% | –
2 | RNA1{[moe](A)[sp].[moe](G)[sp].[moe](A)[sp].[moe](T)[sp].d(G)[sp].d(A)[sp].d(G)[sp].d(G)[sp].d(C)[sp].d(A)[sp].d(T)[sp].d(A)[sp].d(G)[sp].[moe](C)[sp].[moe](A)[sp].[moe](G)[sp].[moe](C)}$$$$V2.0 | 45% and 40% | –
3 | RNA1{[moe](A)[sp].[moe](G)[sp].[moe](A)[sp].d(A)[sp].d(G)[sp].d(T)[sp].d(C)[sp].d(C)[sp].d(A)[sp].d(C)[sp].d(C)[sp].d(A)[sp].[moe](C)[sp].[moe](G)[sp].[moe](A)[sp].[moe](G)[sp].[moe](T)}$$$$V2.0 | 41% and 44% | –
4 | RNA1{[moe](A)[sp].[moe](G)[sp].[moe](A)[sp].d(G)[sp].d(G)[sp].d(T)[sp].d(G)[sp].d(A)[sp].d(A)[sp].d(G)[sp].d(C)[sp].d(G)[sp].d(A)[sp].[cEt](A)[sp].[cEt](G)[sp].[cEt](T)}$$$$V2.0 | 69% and 74% | –
5 | RNA1{[moe](A)[sp].[moe](G)[sp].[moe](A)[sp].d(T)[sp].d(G)[sp].d(A)[sp].d(G)[sp].d(G)[sp].d(C)[sp].d(A)[sp].d(T)[sp].d(A)[sp].d(G)[sp].[cEt](C)[sp].[cEt](A)[sp].[cEt](G)}$$$$V2.0 | 50% and 70% | –
6 | RNA1{[moe](A)[sp].[moe](G)[sp].[moe](G)[sp].[moe](C)[sp].[moe](A)[sp].[moe](T)[sp].d(A)[sp].d(G)[sp].d(C)[sp].d(A)[sp].d(G)[sp].d(C)[sp].d(A)[sp].d(G)[sp].d(G)[sp].[moe](A)[sp].[moe](T)}$$$$V2.0 | 71% and 50% | –
7 | RNA1{[moe](A)[sp].[moe](G)[sp].[moe](G)[sp].d(C)[sp].d(A)[sp].d(T)[sp].d(A)[sp].d(G)[sp].d(C)[sp].d(A)[sp].d(G)[sp].d(C)[sp].[moe](A)[sp].[moe](G)[sp].[moe](G)[sp].[moe](A)[sp].[moe](T)}$$$$V2.0 | 55% and 53% | –
8 | RNA1{[moe](A)[sp].[moe](G)[sp].[moe](G)[sp].d(C)[sp].d(A)[sp].d(T)[sp].d(A)[sp].d(G)[sp].d(C)[sp].d(A)[sp].d(G)[sp].d(C)[sp].d(A)[sp].[cEt](G)[sp].[cEt](G)[sp].[cEt](A)}$$$$V2.0 | 69% and 77% | –
9 | RNA1{[moe](A)[sp].[moe](G)[sp].[moe](T)[sp].d(T)[sp].d(C)[sp].d(C)[sp].d(G)[sp].d(C)[sp].d(A)[sp].d(G)[sp].d(T)[sp].d(A)[sp].[moe](T)[sp].[moe](G)[sp].[moe](G)[sp].[moe](A)}$$$$V2.0 | 46% and 58% | –
10 | RNA1{[moe](A)[sp].[moe](G)[sp].d(A)[sp].d(G)[sp].d(A)[sp].d(A)[sp].d(G)[sp].d(T)[sp].d(C)[sp].d(C)[sp].d(A)[sp].[moe](C)[sp].[moe](C)[sp].[moe](A)[sp].[moe](C)[sp].[moe](G)[sp].[moe](A)}$$$$V2.0 | 39% and 27% | –
11 | RNA1{[moe](A)[sp].[moe](G)[sp].d(A)[sp].d(G)[sp].d(G)[sp].d(T)[sp].d(G)[sp].d(A)[sp].d(A)[sp].d(G)[sp].d(C)[sp].[moe](G)[sp].[moe](A)[sp].[moe](A)[sp].[moe](G)[sp].[moe](T)[sp].[moe](G)}$$$$V2.0 | 56% | –
12 | RNA1{[moe](A)[sp].[moe](G)[sp].d(A)[sp].d(G)[sp].d(G)[sp].d(T)[sp].d(G)[sp].d(A)[sp].d(A)[sp].d(G)[sp].d(C)[sp].[moe](G)[sp].[moe](A)[sp].[moe](A)[sp].[moe](G)[sp].[moe](T)}$$$$V2.0 | 40% and 48% | –
13 | RNA1{[moe](A)[sp].[moe](G)[sp].d(A)[sp].d(T)[sp].d(G)[sp].d(A)[sp].d(G)[sp].d(G)[sp].d(C)[sp].d(A)[sp].d(T)[sp].[moe](A)[sp].[moe](G)[sp].[moe](C)[sp].[moe](A)[sp].[moe](G)[sp].[moe](C)}$$$$V2.0 | 76% and 78% | –
14 | RNA1{[moe](A)[sp].[moe](G)[sp].d(A)[sp].d(T)[sp].d(G)[sp].d(A)[sp].d(G)[sp].d(G)[sp].d(C)[sp].d(A)[sp].d(T)[sp].[moe](A)[sp].[moe](G)[sp].[moe](C)[sp].[moe](A)[sp].[moe](G)}$$$$V2.0 | 62% and 46% | –
15 | RNA1{[moe](A)[sp].[moe](G)[sp].d(G)[sp].d(A)[sp].d(G)[sp].d(T)[sp].d(T)[sp].d(C)[sp].d(C)[sp].d(G)[sp].d(C)[sp].[moe](A)[sp].[moe](G)[sp].[moe](T)[sp].[moe](A)[sp].[moe](T)[sp].[moe](G)}$$$$V2.0 | 81% and 63% | –
16 | RNA1{[moe](A)[sp].[moe](G)[sp].d(G)[sp].d(T)[sp].d(G)[sp].d(A)[sp].d(A)[sp].d(G)[sp].d(C)[sp].d(G)[sp].d(A)[sp].[moe](A)[sp].[moe](G)[sp].[moe](T)[sp].[moe](G)[sp].[moe](C)[sp].[moe](A)}$$$$V2.0 | 72% and 69% | –
17 | RNA1{[moe](A)[sp].[moe](G)[sp].d(T)[sp].d(T)[sp].d(C)[sp].d(C)[sp].d(G)[sp].d(C)[sp].d(A)[sp].d(G)[sp].d(T)[sp].[moe](A)[sp].[moe](T)[sp].[moe](G)[sp].[moe](G)[sp].[moe](A)[sp].[moe](T)}$$$$V2.0 | 68% and 70% | –
18 | RNA1{[moe](A)[sp].[moe](T)[sp].[moe](G)[sp].[moe](A)[sp].d(G)[sp].d(G)[sp].d(C)[sp].d(A)[sp].d(T)[sp].d(A)[sp].d(G)[sp].d(C)[sp].d(A)[sp].[moe](G)[sp].[moe](C)[sp].[moe](A)[sp].[moe](G)}$$$$V2.0 | 0% | –
19 | RNA1{[moe](A)[sp].[moe](T)[sp].[moe](G)[sp].d(A)[sp].d(G)[sp].d(G)[sp].d(C)[sp].d(A)[sp].d(T)[sp].d(A)[sp].d(G)[sp].d(C)[sp].d(A)[sp].[cEt](G)[sp].[cEt](C)[sp].[cEt](A)}$$$$V2.0 | 71% and 73% | –
20 | RNA1{[moe](A)[sp].[moe](T)[sp].[moe](T)[sp].[cEt](T)[sp].d(A)[sp].d(T)[sp].d(G)[sp].d(C)[sp].d(C)[sp].d(T)[sp].d(A)[sp].d(C)[sp].d(A)[sp].[cEt](G)[sp].[moe](C)[sp].[moe](C)[sp].[moe](T)}$$$$V2.0 | – | target mRNA inhibition (HepG2, 0.009375 µM): 32%; target mRNA inhibition (HepG2, 0.01875 µM): 32%; target mRNA inhibition (HepG2, 0.0375 µM): 42%; target mRNA inhibition (HepG2, 0.075 µM): 62%; target mRNA inhibition (HepG2, 0.15 µM): 76%; target mRNA inhibition (HepG2, 0.3 µM): 80%
21 | RNA1{[moe](A)[sp].[moe](T)[sp].[moe](T)[sp].[moe](T)[sp].d(A)[sp].d(T)[sp].d(G)[sp].d(C)[sp].d(C)[sp].d(T)[sp].d(A)[sp].d(C)[sp].d(A)[sp].[moe](G)[sp].[moe](C)[sp].[moe](C)}$$$$V2.0 | 52% and 49% | –
22 | RNA1{[moe](A)[sp].[moe](T)[sp].[moe](T)[sp].d(T)[sp].d(A)[sp].d(T)[sp].d(G)[sp].d(C)[sp].d(C)[sp].d(T)[sp].d(A)[sp].d(C)[sp].d(A)[sp].[moe](G)[sp].[moe](C)[sp].[moe](C)[sp].[moe](T)}$$$$V2.0 | – | target mRNA inhibition (HepG2, 0.0092593 µM): 3%; target mRNA inhibition (HepG2, 0.0277778 µM): 11%; target mRNA inhibition (HepG2, 0.0833333 µM): 13%; target mRNA inhibition (HepG2, 0.25 µM): 41%
